Activity data for 2 compounds are collected here from ChEMBL document CHEMBL4334438, “Discovery of novel glycogen synthase kinase-3α inhibitors: Structure-based virtual screening, preliminary SAR and biological evaluation for treatment of acute myeloid leukemia” (Eur J Med Chem, 2019).

The test system of assay [1] is Serine/threonine-protein kinase A-Raf (Homo sapiens), P10398 [Y301D,Y302D]. The experiment in a line: Inhibition of recombinant human A-Raf Y301D/Y302D mutant (273 to end residues) assessed as residual activity at 1 uM using myelin basic protein as substrate incubated for 40 mins in presence of [gamma-33ATP] by scintillation counting based radiometry assay relative to control.

For assay [2], the target named is Calcium/calmodulin-dependent protein kinase type IV (Homo sapiens) (UniProt Q16566). The experiment in a line: Inhibition of recombinant full length human CaMK4 assessed as residual activity at 1 uM […] incubated for 40 mins in presence of [gamma-33ATP] by scintillation counting based radiometry assay relative to control.
Assay [3] has as its target CDK2/Cyclin A1 (Homo sapiens) (UniProt P24941+P78396). The experiment in a line: Inhibition of recombinant full length human CDK2/CyclinA assessed as residual activity at 1 uM using Histone H1 as substrate incubated for 40 mins in presence of [gamma-33ATP] by scintillation counting based radiometry assay relative to control. It counts as protein-complex assay.
Assay [4] addresses Cyclin-dependent kinase-like 1 (Homo sapiens) (UniProt Q00532). The experiment in a line: Inhibition of recombinant human CDKL1 (1 to 303 residues) assessed as residual activity at 1 uM using RRRFRPASPLRGP as substrate measured after 120 mins in presence of [gamma33P]ATP by scintillation counting method.
In assay [5] the target is Serine/threonine-protein kinase Chk1 (Homo sapiens) (UniProt O14757). The experiment in a line: Inhibition of recombinant full length human CHK1 assessed as residual activity at 1 uM using KKKVSRSGLYRSP as substrate incubated for 40 mins in presence of [gamma-33ATP] by scintillation counting based radiometry assay relative to control.
The target of assay [6] is Casein kinase I isoform gamma-1 (Homo sapiens) (UniProt Q9HCP0). As to the kind of experiment: Inhibition of recombinant human CK1gamma1 (25 to 355 residues) assessed as residual activity at 1 uM using KRRRALS(p)VASLPGL as substrate measured after 40 mins in presence of [gamma33P]ATP by scintillation counting method.
The subject of assay [7] is Mast/stem cell growth factor receptor Kit (Homo sapiens), P10721 [V654A]. The experiment in a line: Inhibition of recombinant human C-Kit V654A mutant (544 to end residues) assessed as residual activity at 1 uM poly(Glu, Tyr) 4:1 as substrate incubated 40 mins in presence of [gamma-33ATP] by scintillation counting based radiometry assay relative to control.
Assay [8] addresses Proto-oncogene tyrosine-protein kinase Src (Homo sapiens) (UniProt P12931). The experiment in a line: Inhibition of recombinant human C-Src assessed as residual activity at 1 uM KVEKIGEGTYGVV as substrate incubated 40 mins in presence of [gamma-33ATP] by scintillation counting based radiometry assay relative to control.
Assay [9] concerns the target Serine/threonine-protein kinase DCLK3 (Homo sapiens) (UniProt Q9C098). The experiment in a line: Inhibition of recombinant human DCAMKL3 (345 to end residues) assessed as residual activity at 1 uM using KKLNRTLSFAEPG as substrate at 40 mins in presence of [gamma-33ATP] by scintillation counting based radiometry assay relative to control.
The test system of assay [10] is Epidermal growth factor receptor (Homo sapiens), P00533 [L858R,T790M]. As to the kind of experiment: Inhibition of recombinant human EGFR T790M/L858R mutant (696 to end residues) assessed as residual activity at 1 uM using poly(Glu, Tyr) 4:1 as substrate at 40 mins in presence of [gamma-33ATP] by scintillation counting based radiometry assay relative to control.
The target in assay [11] is Fibroblast growth factor receptor 1 (Homo sapiens) (UniProt P11362). The experiment in a line: Inhibition of recombinant human FGFR1 (456 to 765 residues) assessed as residual activity at 1 uM using KKKSPGEYVNIEF as substrate at 40 mins in presence of [gamma-33ATP] by scintillation counting based radiometry assay relative to control.
Assay [12] deals with Leucine-rich repeat serine/threonine-protein kinase 2 (Homo sapiens) (UniProt Q5S007). As to the kind of experiment: Inhibition of recombinant human LRRK2 (970 to end residues) assessed as residual activity at 1 uM using RLGRDKYKTLRQIRQ as substrate after 40 mins in presence of [gamma-33ATP] by scintillation counting based radiometry assay relative to control.
Assay [13] addresses Mitogen-activated protein kinase kinase kinase kinase 3 (Homo sapiens) (UniProt Q8IVH8). The experiment in a line: Inhibition of recombinant human MAP4K3 (1 to 291 residues) assessed as residual activity at 1 uM using RLGRDKYKTLRQIRQ as substrate incubated for 40 mins in presence of [gamma-33ATP by scintillation counting based radiometry assay relative to control.
The target of assay [14] is MAP/microtubule affinity-regulating kinase 3 (Homo sapiens) (UniProt P27448). The experiment in a line: Inhibition of recombinant full length human MARK3 assessed as residual activity at 1 uM using KKKVSRSGLYRSP as substrate incubated for 40 mins in presence of [gamma-33ATP by scintillation counting based radiometry assay relative to control.
Assay [15] deals with Mitogen-activated protein kinase kinase kinase 9 (Homo sapiens) (UniProt P80192). The experiment in a line: Inhibition of recombinant human MLK1 (134 to 414 residues) assessed as residual activity at 1 uM using casein as substrate incubated for 40 mins in presence of [gamma-33ATP by scintillation counting based radiometry assay relative to control.
Assay [16] concerns the target Serine/threonine-protein kinase Nek1 (Homo sapiens) (UniProt Q96PY6). As to the kind of experiment: Inhibition of recombinant human NEK1 (1 to 505 residues) assessed as residual activity at 1 uM using RLGRDKYKTLRQI as substrate measured after 40 mins in presence of [gamma33P]ATP by scintillation counting based radiometry assay relative to control.
For assay [17], the target named is Serine/threonine-protein kinase PAK 6 (Homo sapiens) (UniProt Q9NQU5). As to the kind of experiment: Inhibition of recombinant human PAK6 (382 to end residues) assessed as residual activity at 1 uM using RRRLSFAEPG as substrate measured after 40 mins in presence of [gamma33P]ATP by scintillation counting method relative to control.
For assay [18], the target named is Macrophage-stimulating protein receptor (Homo sapiens) (UniProt Q04912). As to the kind of experiment: Inhibition of recombinant human Ron (983 to end residues) assessed as residual activity at 1 uM using GGMEDIYFEFMGGKKK as substrate measured after 40 mins in presence of [gamma33P]ATP by scintillation counting method relative to control.
The target of assay [19] is Tyrosine-protein kinase SYK (Homo sapiens) (UniProt P43405). The experiment in a line: Inhibition of recombinant full-length human Syk at 1 uM assessed as residual activity at 1 uM using poly(Glu, Tyr) 4:1 as substrate measured after 120 mins in presence of [gamma33P]ATP by scintillation counting method relative to control.
Assay [20] has as its target NT-3 growth factor receptor (Homo sapiens) (UniProt Q16288). The experiment in a line: Inhibition of human TrkC (510 to end residues) assessed as residual activity at 1 uM using GEEPLYWSFPAKKK as substrate measured after 40 mins in presence of [gamma33P]ATP by scintillation counting method relative to control.
The species named for the next assay is Mus musculus. As to the kind of experiment: Inhibition of recombinant full-length mouse PI3K p110alpha/p85alpha at 1 uM assessed as residual activity at 1 uM using phosphatidylinositol-4, 5-bisphosphate as substrate measured after 40 mins by HTRF assay. For orientation: TR-FRET usually uses a lanthanide donor and a delayed reading to cut background.

Cyclin-dependent kinase-like 1 (Homo sapiens), sequence (Q00532 whole entry, the tested form may be a part): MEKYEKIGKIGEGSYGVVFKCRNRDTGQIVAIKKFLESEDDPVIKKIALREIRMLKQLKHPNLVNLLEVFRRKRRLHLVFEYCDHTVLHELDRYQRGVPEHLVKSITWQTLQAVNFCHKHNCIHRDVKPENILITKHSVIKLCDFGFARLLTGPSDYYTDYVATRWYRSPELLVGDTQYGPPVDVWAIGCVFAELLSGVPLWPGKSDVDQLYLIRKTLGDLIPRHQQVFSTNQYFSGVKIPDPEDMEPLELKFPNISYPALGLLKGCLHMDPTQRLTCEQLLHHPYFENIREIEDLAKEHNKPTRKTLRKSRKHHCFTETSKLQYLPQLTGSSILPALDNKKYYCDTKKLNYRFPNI
NT-3 growth factor receptor (Homo sapiens), sequence (Q16288 32-839 limits assumed): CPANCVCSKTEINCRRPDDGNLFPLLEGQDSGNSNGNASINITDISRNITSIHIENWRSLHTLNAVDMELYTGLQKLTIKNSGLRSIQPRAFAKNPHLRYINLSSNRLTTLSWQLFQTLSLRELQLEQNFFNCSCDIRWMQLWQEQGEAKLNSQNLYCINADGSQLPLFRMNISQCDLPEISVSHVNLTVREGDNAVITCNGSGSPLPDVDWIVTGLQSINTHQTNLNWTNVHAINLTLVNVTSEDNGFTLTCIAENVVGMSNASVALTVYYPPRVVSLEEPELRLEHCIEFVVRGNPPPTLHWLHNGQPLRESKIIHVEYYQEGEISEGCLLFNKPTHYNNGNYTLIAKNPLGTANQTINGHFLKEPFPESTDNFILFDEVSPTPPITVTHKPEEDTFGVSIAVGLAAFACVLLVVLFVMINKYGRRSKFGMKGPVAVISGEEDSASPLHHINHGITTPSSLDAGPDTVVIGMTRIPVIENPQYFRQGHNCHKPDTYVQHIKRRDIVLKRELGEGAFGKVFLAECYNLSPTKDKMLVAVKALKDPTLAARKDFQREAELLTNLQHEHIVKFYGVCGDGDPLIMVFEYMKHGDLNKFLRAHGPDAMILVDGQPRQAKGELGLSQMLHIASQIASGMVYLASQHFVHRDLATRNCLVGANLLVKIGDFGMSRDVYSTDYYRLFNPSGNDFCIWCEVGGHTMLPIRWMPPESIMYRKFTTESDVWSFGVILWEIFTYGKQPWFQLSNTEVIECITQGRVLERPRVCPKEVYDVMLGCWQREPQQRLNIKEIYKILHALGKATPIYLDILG
Casein kinase I isoform gamma-1 (Homo sapiens), sequence (Q9HCP0 whole entry, looked up, the tested form may be a part, canonical isoform): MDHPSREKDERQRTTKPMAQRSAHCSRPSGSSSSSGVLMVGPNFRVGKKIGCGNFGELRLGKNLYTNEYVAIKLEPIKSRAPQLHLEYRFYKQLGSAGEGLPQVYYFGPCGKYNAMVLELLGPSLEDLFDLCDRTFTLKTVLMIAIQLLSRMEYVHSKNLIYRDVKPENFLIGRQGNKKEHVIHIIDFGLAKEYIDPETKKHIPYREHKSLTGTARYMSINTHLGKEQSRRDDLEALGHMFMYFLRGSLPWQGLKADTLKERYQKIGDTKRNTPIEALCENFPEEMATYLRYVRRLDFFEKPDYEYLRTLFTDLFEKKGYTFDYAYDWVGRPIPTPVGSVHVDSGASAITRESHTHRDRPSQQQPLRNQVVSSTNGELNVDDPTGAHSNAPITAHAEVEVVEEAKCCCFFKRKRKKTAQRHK
Mitogen-activated protein kinase kinase kinase kinase 3 (Homo sapiens), sequence (Q8IVH8 whole entry, the tested form may be a part): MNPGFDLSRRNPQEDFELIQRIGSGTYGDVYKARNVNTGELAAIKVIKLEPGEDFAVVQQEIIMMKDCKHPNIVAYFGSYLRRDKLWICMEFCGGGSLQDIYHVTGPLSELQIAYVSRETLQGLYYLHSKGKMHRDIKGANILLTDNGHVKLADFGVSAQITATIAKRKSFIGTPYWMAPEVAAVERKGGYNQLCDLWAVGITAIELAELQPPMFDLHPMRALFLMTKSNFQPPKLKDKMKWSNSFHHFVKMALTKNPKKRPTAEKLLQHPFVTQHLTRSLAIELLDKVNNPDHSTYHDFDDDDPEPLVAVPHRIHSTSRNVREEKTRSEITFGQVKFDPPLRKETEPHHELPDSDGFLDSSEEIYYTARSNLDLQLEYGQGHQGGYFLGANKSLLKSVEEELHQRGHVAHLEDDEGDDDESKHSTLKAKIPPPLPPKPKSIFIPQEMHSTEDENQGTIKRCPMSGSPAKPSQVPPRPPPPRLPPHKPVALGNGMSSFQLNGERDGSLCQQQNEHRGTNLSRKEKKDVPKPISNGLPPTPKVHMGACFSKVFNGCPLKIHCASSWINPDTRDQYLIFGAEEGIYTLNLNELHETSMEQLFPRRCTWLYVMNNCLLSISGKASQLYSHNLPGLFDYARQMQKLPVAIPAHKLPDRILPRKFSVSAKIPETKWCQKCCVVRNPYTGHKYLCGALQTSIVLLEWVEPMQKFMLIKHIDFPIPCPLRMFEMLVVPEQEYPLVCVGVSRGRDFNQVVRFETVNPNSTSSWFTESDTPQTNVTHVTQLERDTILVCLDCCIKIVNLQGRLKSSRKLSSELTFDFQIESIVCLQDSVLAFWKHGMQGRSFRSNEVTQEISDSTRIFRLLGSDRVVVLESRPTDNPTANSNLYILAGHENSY
Mast/stem cell growth factor receptor Kit (Homo sapiens), P10721 [V654A], sequence (P10721 whole entry V654A): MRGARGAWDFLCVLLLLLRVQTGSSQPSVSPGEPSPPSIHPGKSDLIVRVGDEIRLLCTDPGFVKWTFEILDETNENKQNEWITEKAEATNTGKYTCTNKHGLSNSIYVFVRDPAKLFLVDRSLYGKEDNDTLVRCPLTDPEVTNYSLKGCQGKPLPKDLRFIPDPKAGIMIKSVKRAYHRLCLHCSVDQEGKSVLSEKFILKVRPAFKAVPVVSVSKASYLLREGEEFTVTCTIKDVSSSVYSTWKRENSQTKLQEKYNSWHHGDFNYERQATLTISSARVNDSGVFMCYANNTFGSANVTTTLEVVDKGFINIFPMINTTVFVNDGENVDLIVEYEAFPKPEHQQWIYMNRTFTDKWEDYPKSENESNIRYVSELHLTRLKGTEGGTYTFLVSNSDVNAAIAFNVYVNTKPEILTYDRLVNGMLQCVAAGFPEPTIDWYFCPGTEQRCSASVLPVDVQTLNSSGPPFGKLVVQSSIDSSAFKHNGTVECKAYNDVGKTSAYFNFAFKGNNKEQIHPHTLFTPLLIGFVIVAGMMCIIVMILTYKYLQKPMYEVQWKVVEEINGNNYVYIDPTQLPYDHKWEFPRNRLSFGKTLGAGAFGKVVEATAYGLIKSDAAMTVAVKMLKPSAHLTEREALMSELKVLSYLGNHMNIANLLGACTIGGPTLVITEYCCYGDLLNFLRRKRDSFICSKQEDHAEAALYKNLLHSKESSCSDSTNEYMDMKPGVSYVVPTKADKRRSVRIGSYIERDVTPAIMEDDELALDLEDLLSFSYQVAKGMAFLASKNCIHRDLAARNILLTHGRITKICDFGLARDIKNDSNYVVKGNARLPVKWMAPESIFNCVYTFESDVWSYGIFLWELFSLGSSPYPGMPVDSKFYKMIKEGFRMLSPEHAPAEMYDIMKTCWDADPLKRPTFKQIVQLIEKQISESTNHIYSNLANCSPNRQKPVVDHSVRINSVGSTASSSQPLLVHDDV
Serine/threonine-protein kinase A-Raf (Homo sapiens), P10398 [Y301D,Y302D], sequence (P10398 whole entry Y301D/Y302D): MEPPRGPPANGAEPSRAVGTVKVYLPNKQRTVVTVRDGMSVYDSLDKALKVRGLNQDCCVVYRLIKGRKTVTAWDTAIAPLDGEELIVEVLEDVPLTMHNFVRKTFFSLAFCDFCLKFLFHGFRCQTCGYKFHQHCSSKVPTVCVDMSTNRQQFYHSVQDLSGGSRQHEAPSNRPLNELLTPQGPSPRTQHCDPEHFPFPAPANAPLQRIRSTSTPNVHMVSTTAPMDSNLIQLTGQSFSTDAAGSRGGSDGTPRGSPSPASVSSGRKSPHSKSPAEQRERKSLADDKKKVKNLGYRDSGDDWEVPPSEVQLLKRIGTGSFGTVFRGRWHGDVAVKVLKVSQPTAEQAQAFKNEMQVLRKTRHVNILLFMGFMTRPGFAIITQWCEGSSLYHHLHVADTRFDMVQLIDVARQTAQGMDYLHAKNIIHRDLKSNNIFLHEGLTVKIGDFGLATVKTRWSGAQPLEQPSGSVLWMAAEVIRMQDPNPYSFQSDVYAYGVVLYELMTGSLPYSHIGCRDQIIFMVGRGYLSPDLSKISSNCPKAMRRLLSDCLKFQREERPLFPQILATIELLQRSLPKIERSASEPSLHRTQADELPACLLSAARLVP
Serine/threonine-protein kinase PAK 6 (Homo sapiens), sequence (Q9NQU5 whole entry, looked up): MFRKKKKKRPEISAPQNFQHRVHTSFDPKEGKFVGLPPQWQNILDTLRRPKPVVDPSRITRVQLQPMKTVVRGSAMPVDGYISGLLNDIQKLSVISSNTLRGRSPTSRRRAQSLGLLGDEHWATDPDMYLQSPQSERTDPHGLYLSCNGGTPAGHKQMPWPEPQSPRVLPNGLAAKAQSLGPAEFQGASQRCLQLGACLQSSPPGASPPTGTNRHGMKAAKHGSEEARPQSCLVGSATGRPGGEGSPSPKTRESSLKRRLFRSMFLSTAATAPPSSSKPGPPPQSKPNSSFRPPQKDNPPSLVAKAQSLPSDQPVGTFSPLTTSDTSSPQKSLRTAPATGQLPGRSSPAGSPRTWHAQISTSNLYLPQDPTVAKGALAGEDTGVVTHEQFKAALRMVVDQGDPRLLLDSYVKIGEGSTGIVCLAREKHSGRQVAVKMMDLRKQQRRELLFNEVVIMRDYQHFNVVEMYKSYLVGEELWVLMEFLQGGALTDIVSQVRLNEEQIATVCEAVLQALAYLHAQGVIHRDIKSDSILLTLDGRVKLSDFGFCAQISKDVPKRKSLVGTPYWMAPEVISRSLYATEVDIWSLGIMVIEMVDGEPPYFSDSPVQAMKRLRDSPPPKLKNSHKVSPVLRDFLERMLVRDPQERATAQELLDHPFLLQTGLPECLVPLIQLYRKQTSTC

Consider `C=CCOC(=O)c1cc(-c2ccc(/C=C3/NC(=S)NC3=O)o2)ccc1Cl`, for which the Activity in [1] stood at 111%; in assay [2], 95%; in assay [3], 54%; in assay [4] it was 78%; in assay [5], 103%; in assay [6] it was 101%. Further, the Activity in [7] came out at 95%; in assay [8], 79%; in assay [9], 103%; in assay [10], 97%; in assay [11] it was 113%; in assay [12], 100%. Also, the Activity in assay [13] turned out to be 99%; in [14], 99%; in assay [15], 99%; in assay [16] it was 95%; in [17] it was 107%; in assay [18], 106%. Further, the Activity turned out to be 82% in [19], 98% in assay [20] and 93% in the assay filed under Mus musculus.
As for `N=C1NC(=O)/C(=C\c2ccc(-c3cccc([N+](=O)[O-])c3)o2)S1`, the Activity turned out to be 105% in assay [1]; 87% in [2]; 61% in assay [3]; 85% in [4]; 102% in assay [5]; 101% in assay [6]. Besides, the Activity worked out at 108% in [7]; 82% in [8]; 92% in assay [9]; 89% in [10]; 99% in [11]; 99% in assay [12]. The Activity was 102% in [13]; 100% in assay [14]; 98% in assay [15]; 107% in [16]; 91% in assay [17]; 104% in assay [18]. The Activity in [19] was found to be 93%; in assay [20] it was 104%; in the assay listed under Mus musculus, 97%.
